Measured values taken from US7342005B2, “Antibiotic compounds” (AstraZeneca UK Limited, priority 1992, dated 2008).
Values after ≈ are worked out from the molar mass of the structure shown. Where two headings read alike, the source gives them in different places.

Tests used:
Assay in all cases: MIC by agar-dilution, Diagnostic Sensitivity Test
Format in all cases: cell-based
Conditions in all cases: inoculum 10^4 CFU/spot
[1] = tested on: E. coli TEM
Text: (§1) The following results were obtained for representative compounds on a standard in vitro test system using Diagnostic Sensitivity Test. The antibacterial activity is described in terms of the minimum inhibitory concentration (MIC) determined by the agar-dilution technique with an inoculum size of 10^4 CFU/spot.

[2] = tested on: Enterobacter cloacae 029
Text: as §1

[3] = tested on: Enterobacter cloacae 108
Text: as §1

[4] = tested on: S. aureus 147N
Text: as §1

Row | Compound | MIC [1] [µg/mL] | MIC [2] [µg/mL] | MIC [3] [µg/mL] | MIC [4] [µg/mL] | MIC ([1]; Escherichia coli, read-out: MIC) [µg/mL] | MIC ([2]; read-out: MIC) [µg/mL] | MIC ([3]; read-out: MIC) [µg/mL] | MIC ([4]; Staphylococcus aureus, read-out: MIC) [µg/mL]
1 | C[C@@H](O)[C@H]1C(=O)N2C(C(=O)O)=C(S[C@@H]3CN[C@H](C(=O)Nc4cc(O)cc(C(=O)O)c4)C3)[C@H](C)[C@H]12 [Example 1, (1R,5S,6S,8R,2′S,4′S)-2-(2-(3-Carboxy-5-hydroxyphenylcarbamoyl)-pyrrolidin-4-yl-thio)-6-(1-hydroxyethyl)-1-methylcarbapenem-3-carboxylic acid] | 0.03 (≈ 0.061 µM) | 0.06 (≈ 0.122 µM) | 1.00 (≈ 2.03 µM) | 0.25 (≈ 0.509 µM) | – | – | – | –
2 | CC(O)C1C(=O)N2C(C(=O)O)=C(SC3CNC(C(=O)Nc4ccc(Cl)c(C(=O)O)c4)C3)C(C)[C@H]12 (stereo partly drawn) [Example 2, (1R,5S,6S,8R,2′S,4′S)-2-(2-(3-Carboxy-4-chlorophenylcarbamoyl)-pyrrolidin-4-ylthio)-6-(1-hydroxyethyl)-1-methylcarbapenem-3-carboxylic acid] | 0.02 (≈ 0.0392 µM) | 0.03 (≈ 0.0588 µM) | 1.00 (≈ 1.96 µM) | 0.50 (≈ 0.98 µM) | – | – | – | –
3 | CC(O)C1C(=O)N2C(C(=O)O)=C(SC3CNC(C(=O)Nc4cccc(C(=O)O)c4)C3)C(C)[C@H]12 (stereo partly drawn) [Example 4, (1R,5S,6S,8R,2′S,4′S)-2-(2-(3-Carboxyphenylcarbamoyl)pyrrolidin-4-ylthio) -6-(1-hydroxyethyl)-1-methylcarbapenem-3-carboxylic acid] | 0.02 (≈ 0.0421 µM) | 0.03 (≈ 0.0631 µM) | 0.50 (≈ 1.05 µM) | 0.25 (≈ 0.526 µM) | – | – | – | –
4 | C[C@@H](O)[C@H]1C(=O)N2C(C(=O)O)=C(S[C@@H]3CN[C@H](C(=O)Nc4ccc(O)c(C(=O)O)c4)C3)[C@H](C)[C@H]12 [Example 10, (1R,5S,6S,8R,2′S,4′S)-2-(2-(3-Carboxy-4-hydroxyphenylcarbamoyl)pyrrolidin-4-ylthio)-6-(1-hydroxyethyl)-1-methylcarbapenem-3-carboxylic acid] | 0.01 (≈ 0.0203 µM) | 0.01 (≈ 0.0203 µM) | 0.25 (≈ 0.509 µM) | 0.13 (≈ 0.264 µM) | – | – | – | –
5 | CO/N=C(\C(=O)N[C@@H]1C(=O)N2C(C(=O)O)=C(CSc3nc(=O)c(=O)[nH]n3C)CS[C@H]12)c1csc(N)n1 [ceftriaxone, reference compound] | – | – | – | – | 0.03 (≈ 0.0541 µM) | 0.06 (≈ 0.108 µM) | 32 (≈ 57.7 µM) | 2 (≈ 3.61 µM)
